Experimental data reported in patent publication US20260356834A1, “ANTICONVULSIVE COMPOUNDS AND USES THEREOF” (Jazz Pharmaceuticals Research UK Limite, priority 2023, published 2026).
“And” between values parts separate entries of the source, which are not always exact repeats. Equal values may be shown once. Marks after values point to notes of the source that are not given here.

What was measured:
C57BL/6J mice = test: mouse maximal electroshock seizure threshold model using minimal sample sizes (mini-MEST)
Procedure: An increase in seizure threshold is indicative of an anticonvulsive effect.
The ability of a test compound to alter the stimulus intensity, expressed as current (mA), required to induce the presence of tonic hind limb extensor convulsions, is assessed in the MEST.
In the mini-MEST test, a lower n number is used.
Male C57BL/6J mice were housed in groups of 6. Mice were kept under standard conditions (12 hour light cycle; light intensity of 25-75 lux) and fed a diet of certified rodent CR 14% protein rodent diet (LabDiet® 4CR4). Mice were 8-9 weeks old at the start of the study.
Naïve mice were acclimatised to the procedure room in their home cages for up to 7 days, with food and water available ad libitum.
All animals were weighed at the beginning of the study and randomly assigned to treatment groups based on a mean distribution of body weight across groups.
The first animal within a treatment group was given a shock at the expected or estimated CC50 current. For subsequent animals, the current was lowered or raised depending on the convulsions outcome from the preceding animal in log scale intervals.
Data generated from each treatment group were used to calculate the CC50±SEM values for the treatment group.
Vehicle: (5% ethanol, 10% Solutol® (Kolliphor® HS 15), 85% saline). 1 mL of ethanol, 2 mL of Solutol™ were warmed to 60 °C, in 17 mL of 0.9% saline.
Test compounds: 5-50 mg/kg in a 1:2:17 ethanol:Solutol®:saline formulation (as used for vehicle).

DBA/2 mice = test: mouse audiogenic seizure test; format: in vivo
Text: The Audiogenic Seizure Test, which detects anticonvulsant activity, follows that described by Durmüller et al., 1993. Mice of the DBA/2 strain undergo an age-dependent sequence of convulsions (wild-running, clonic convulsion, tonic convulsion and respiratory arrest) within 60 seconds of exposure to a loud sound of 110-120 dB. The type of convulsions are consistent with aspects of generalised seizure in humans.
Male DBA/2 mice (3-4 weeks old) were supplied by Janvier Labs (53940 Le Genest-Saint-Isle, France); weight range 6-13 g at the beginning of the experiment. Animals were acclimatized to the Test Facility for 1 day after delivery and randomly housed in groups of 5 in macrolon cages on wood litter with free access to food and water.
The animal house was maintained under artificial lighting (12 hours) between 7:00 and 19:00 in a controlled ambient temperature of 22±2 °C and relative humidity between 30-70%.
Mice were individually transferred (at 3-5 minutes intervals) from the preparation room into an adjacent experimental room and body temperature was measured using a rectal thermometer (Digital Laboratory Thermometer: Model BAT-12). Immediately after, they were placed in a Plexiglas jar (Diameter=40 cm; Height=35 cm) mounted with an electric bell (110-120 dB, supplier Leroy Merlin, France). Upon activating the bell, the occurrences and latencies to wild running fits, clonic and tonic seizures were measured. Deaths were also recorded. The bell was activated until a tonic seizure occurred, or for a maximum of 60 seconds.
The experiment included groups of 10 mice per group. Experimenters were only partially blinded to treatment group as pre-treatment times were different.
The test substance was evaluated at various doses, administered i.p. (10 ml/kg) 15 or 30 minutes before the test, and compared with a vehicle control group.
Due to the number of animals tested, the experiment was divided in 2 sub-experiments on 2 separate days (7 days apart) with 5 mice per group in each sub-experiment.
Data were tested for normality using d'Agostino-Pearson Test and found to not follow a normal distribution. Statistical outliers were not identified or removed because no behavioural outliers were identified. Quantitative data (latencies) with the test substance were analyzed by comparing treated groups with vehicle control using Kruskal-Wallis test followed by Dunn's multiple comparisons test. Quantitative data with the reference substance were analyzed using Mann-Whitney U test. Quantal data (frequencies) were analyzed by comparing treated groups with vehicle control using Fisher's Exact Probability test.

RjOrl: Swiss mice = test: mouse 6 Hz (44 mA) model of partial seizures; format: in vivo; conditions: for Mean Forelimb Clonus +/− SEM: score 0-2; for Change from vehicle 2 (forelimb clonus): vs vehicle 2 (1:2:17)
[1] = 25 mg/kg p.o., 15 min post dose
[2] = 25 mg/kg p.o., 60 min post dose
[3] = 30 mg/kg i.p., 30 min post dose
[4] = 50 mg/kg p.o., 30 min post dose
[5] = 50 mg/kg p.o., 60 min post dose
[6] = 50 mg/kg p.o., 120 min post dose
[7] = 50 mg/kg p.o., 240 min post dose

## CCCc1cc(O)c(-c2c(C)c(Cl)cn3ccnc23)c(O)c1 [Compound 4, 2-(6-Chloro-7-methylimidazo[1,2-a]pyridin-8-yl)-5-propylbenzene-1,3-diol]
C57BL/6J mice; [1]
  CC50 +/− SEM: 80.9 ± 3.7 mA
  Change from vehicle (CC50): 216%
C57BL/6J mice; 25 mg/kg p.o., 30 min post dose
  CC50 +/− SEM: 92.9 ± 1.1 mA and 53.5 ± 3.4 mA and 106.6 ± 1.1 mA
C57BL/6J mice; [2]
  CC50 +/− SEM: 70.5 ± 1.1 mA
  Change from vehicle (CC50): 176%
C57BL/6J mice; [3]
  CC50 +/− SEM: 70.5 ± 1.1 mA
  Change from vehicle (CC50): 140%
C57BL/6J mice; [4]
  CC50 +/− SEM: 80.9 ± 1.1 mA
  Change from vehicle (CC50): 145%
C57BL/6J mice; [5]
  CC50 +/− SEM: >131.0 mA
  Change from vehicle (CC50): >297%
C57BL/6J mice; [6]
  CC50 +/− SEM: 61.4 ± 1.1 mA
  Change from vehicle (CC50): 100%
C57BL/6J mice; [7]
  CC50 +/− SEM: 61.4 ± 3.7 mA
  Change from vehicle (CC50): 100%
DBA/2 mice; 3 mg/kg i.p., 30 min
  Clonic convulsion - latency, Change from vehicle: −5%
  Clonic convulsion - presence, %: 100%
  Clonic convulsion - presence, Change from vehicle: 0%
  Tonic convulsion - latency, Change from vehicle: +6%
  Tonic convulsion - presence, %: 90%
  Tonic convulsion - presence, Change from vehicle: −10%
  Wild running - latency, Change from vehicle: −2%
  Wild running - presence, %: 100%
  Wild running - presence, Change from vehicle: 0%
DBA/2 mice; 10 mg/kg i.p., 30 min
  Clonic convulsion - latency, Change from vehicle: +5%
  Clonic convulsion - presence, %: 90%
  Clonic convulsion - presence, Change from vehicle: −10%
  Tonic convulsion - latency, Change from vehicle: +24%
  Tonic convulsion - presence, %: 70%
  Tonic convulsion - presence, Change from vehicle: −30%
  Wild running - latency, Change from vehicle: +4%
  Wild running - presence, %: 100%
  Wild running - presence, Change from vehicle: 0%
DBA/2 mice; 30 mg/kg i.p. vs vehicle
  latency to clonic convulsions (significance in words): significantly increased
  latency to tonic convulsions (significance in words): significantly increased
  latency to wild running (significance in words): significantly increased
DBA/2 mice; 30 mg/kg i.p., 15 min
  Clonic convulsion - latency, Change from vehicle: +368%**
  Clonic convulsion - presence, %: 70%
  Clonic convulsion - presence, Change from vehicle: −30%
  Tonic convulsion - latency, Change from vehicle: +426%***
  Tonic convulsion - presence, %: 10%
  Wild running - latency, Change from vehicle: +608%**
  Wild running - presence, %: 70%
  Wild running - presence, Change from vehicle: −30%
DBA/2 mice; 60 mg/kg i.p. vs vehicle
  latency to clonic convulsions (significance in words): significantly increased
  latency to tonic convulsions (significance in words): significantly increased
  latency to wild running (significance in words): significantly increased
DBA/2 mice; 60 mg/kg i.p., 30 min, n = 9
  Clonic convulsion - latency, Change from vehicle: +614%***
  Clonic convulsion - presence, %: 11%
  Tonic convulsion - latency, Change from vehicle: +426%***
  Tonic convulsion - presence, %: 0%
  Wild running - latency, Change from vehicle: +1150%***
  Wild running - presence, %: 22%
DBA/2 mice; 3, 10 or 30 mg/kg i.p.
  number of mice displaying clonic convulsions (significance in words): no significant differences
  number of mice displaying wild running (significance in words): no significant differences
DBA/2 mice; 3 and 10 mg/kg i.p. vs vehicle
  latency to clonic convulsions (significance in words): no significant differences
  latency to wild running (significance in words): no significant differences
DBA/2 mice; 3 or 10 mg/kg i.p.
  number of mice displaying tonic convulsions (significance in words): no significant differences
DBA/2 mice; 3 or 10 mg/kg i.p. vs vehicle
  latency to tonic convulsions (significance in words): no significant differences
RjOrl: Swiss mice; 10 mg/kg i.p., 30 min
  Mean Forelimb Clonus +/− SEM: 1.00 ± 0.11
  Change from vehicle 2 (forelimb clonus): +54%
RjOrl: Swiss mice; 30 mg/kg i.p., 15 min
  Mean Forelimb Clonus +/− SEM: 0.30 ± 0.11
  Change from vehicle 2 (forelimb clonus): −54%
RjOrl: Swiss mice; 60 mg/kg i.p., 30 min
  Mean Forelimb Clonus +/− SEM: 0.30 ± 0.11
  Change from vehicle 2 (forelimb clonus): −54%
RjOrl: Swiss mice; 100 mg/kg i.p., 30 min
  Mean Forelimb Clonus +/− SEM: 0.11 ± 0.07
  Change from vehicle 2 (forelimb clonus): −83%**
RjOrl: Swiss mice; 60 and 100 mg/kg i.p.
  sedation: ***p < 0.001; relatively low forelimb seizure scores in the 1:2:17 vehicle group may impact data interpretation; slight to moderate sedation observed with Compound 4 at 60 and 100 mg/kg.
